According to US20260125350A1, “CENTROMERE PROTEIN CENP-M SMALL MOLECULE INHIBITOR CENPEMLIN, AND PREPARATION METHOD THEREFOR AND USE THEREOF” (UNIVERSITY OF SCIENCE AND TECHNOLOGY OF CHINA, priority 2022, published 2026):

How the values were obtained:
[1] = system: HeLa cells stably expressing GFP-CENP-N; test: Chromosome alignment phenotype in mitosis, immunofluorescence imaging; format: cell-based; settings: 1 μM, 1 h, after thymidine release
Method: • 1) HeLa cells stably expressing GFP-CENP-N were seeded on a round coverslip with a diameter of 12 mm; • 2) after 24 h, Thymidine was added to the cells at a final concentration of 2 mM for 14-16 h; • 3) the cells were washed three times with PBS prewarmed at 37° C. to elute Thymidine, and fresh culture medium was added to continue culturing for 8 h; • 4) cempelin was added to the experimental group at a final concentration of 1 μM, and the control group was added with an equal volume of DMSO for 1 h; • 5) the cells were fixed with PBS buffer containing 3.7% formaldehyde for 10 min; • 6) after 0.2% TritonX-100 permeabilization and 1% BSA blocking, ACA antibody was incubated at room temperature for 1 h; • 7) DAPI was stained for 3 min and then the slides were sealed; • 8) the slides were placed on the DV microscope stage and imaged by a 60×, NA=1.42 lens.

HeLa cells [2] = test: Real-time live cell imaging of mitosis (mitotic arrest); format: cell-based; settings: 1 μM
Method: • 1) Inoculate HeLa cells into 35 mm live cell culture dishes; • 2) transfect plasmid DNA: GFP-tubulin and mCherry-H2B after 24 h (the density of transfected plasmid cells is 70%-80%); • 3) replace with fresh culture medium 6 h after transfection and add 2 mM Thymidine to treat cells for 14-16 h; • 4) wash cells 3 times with PBS preheated at 37° C. to release cells, then replace with fresh culture medium to continue culturing; • 5) turn on the Applied Precision Personal DV microscope and thermostat to stabilize the temperature at 37° C.; • 6) 8-9 h after release, replace the cell culture medium with CO2-independent Medium, add cenpemlin with a final concentration of 1 μM or the same volume of DMSO; • 7) place the cells on the 37° C. thermostat stage of the DV microscope and shoot real-time under a 60×, NA=1.42 lens, taking one frame every 3 min.

HeLa cells [3] = test: Elution (washout) effect, real-time live cell imaging after MG132 and compound treatment; format: cell-based; settings: 1 h with MG132 20 μM and compound, then washed out
Method: • 1) Seed HeLa cells into 35 mm live-cell imaging dishes; • 2) transfect plasmid DNA after 24 h: GFP-tubulin and mCherry-H2B (the density of transfected plasmid cells is 70%-80%); • 3) replace with fresh culture medium 6 h after transfection and add MG132 at a final concentration of 20 μM and cenpemlin or DMSO to treat the cells for 1 h; • 4) turn on the Applied Precision Personal DV microscope and the thermostat to stabilize the temperature at 37° C.; • 5) wash the cells three times with PBS prewarmed at 37° C. to release the cells, and then replace with fresh culture medium to continue culturing; • 6) immediately after release, replace the cell culture medium with CO2-independent Medium; • 7) place the cells on the 37° C. thermostat stage of the DV microscope and imaging in real time by a 60×, NA=1.42 lens, taking one frame every 3 min.

[4] = target: T1, interaction between CENP-M and CENP-L (Homo sapiens, UniProt Q9NSP4); test: Co-immunoprecipitation of GFP-CENP-M with FLAG-CENP-L from treated HEK293T cells, immunoblot; format: cell-based; settings: 1 μM, 1 h, FLAG beads pull-down
T1 construct: expressed in transfected cells; host or cells: HEK293T
T1 sequence (Q9NSP4 whole entry): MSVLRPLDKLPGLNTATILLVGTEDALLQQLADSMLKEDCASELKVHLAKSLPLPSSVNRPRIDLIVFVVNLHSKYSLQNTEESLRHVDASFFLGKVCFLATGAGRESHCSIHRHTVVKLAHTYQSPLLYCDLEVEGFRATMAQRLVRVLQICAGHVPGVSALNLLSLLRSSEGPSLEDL
Method: • 1) Inoculate HEK293T cells into 6 cm culture dishes; • 2) transfect plasmid DNA: GFP-CENP-M and FLAG-CENP-L after 24 h (the density of cells is 70%-80%); • 3) replace with fresh culture medium 4 h after transfection and continue to culture for 24 h; • 4) add cenpemlin with a final concentration of 1 μM or the same volume of DMSO to treat cells for 1 h; • 5) scrape the cells with a cell scraper, collect them in a centrifuge tube, and remove the culture medium by centrifugation at 1,000 rpm; • 6) add cell lysis buffer for ultrasonic disruption, and centrifuge at 12,000 rpm for 10 min; • 7) take the supernatant and incubate with FLAG beads for 4 h; • 8) wash the beads for three times with cell lysis buffer, boil the sample with sample buffer, and then perform electrophoresis and immunoblot analysis.

[5] = system: HeLa cells (cervical cancer cells); test: Trypan blue staining of cancer cells after treatment; format: cell-based; settings: 1 μM, 24 h
Method: (§1) • 1) HeLa cells (cervical cancer cells), MDA-MB-231 cells (triple negative breast cancer cells) and HepG2 cells (liver cancer cells) were seeded into 6 cm culture dishes; • 2) The small molecule compound cenpemlin or DMSO was added at a final concentration of 1 μM to treat the cells for 24 h; • 3) The cells were digested with trypsin and the cell suspension was taken for trypan blue staining; • 4) The blue-stained cells were observed and counted under an ordinary optical microscope.

[6] = system: HepG2 cells (liver cancer cells); test: as above; format: cell-based; settings: 1 μM, 24 h
Method: as §1

[7] = system: MDA-MB-231 cells (triple negative breast cancer cells); test: as above; format: cell-based; settings: 1 μM, 24 h
Method: as §1

[8] = system: liver cancer cells MHCC97-H cells; test: Liver implantation model of luciferase-stable liver cancer cells in mice, luciferase imaging; format: in vivo, NOD/SCID mice; settings: intraperitoneal injection, 11th day of administration; cenpemlin 2 mg/kg
Method: • 1) According to the published experimental protocol (Chen et al., 2011. Cancer Res), we implanted luciferase-stable liver cancer cells MHCC97-H cells (5×10^6 in 0.1 mL saline) into the liver of 6-week-old female NOD/SCID mice. The experiment was divided into three groups, namely the DMSO control group, the paclitaxel group and the cenpemlin group (2 mg/kg), with 10 mice in each group. • 2) After 14 days of modeling (successful modeling of luciferase test), the DMSO control group, the paclitaxel group and the cenpemlin experimental group (2 mg/kg) were intraperitoneally injected (0.2 mL per mouse; 0.1 mL was injected on both sides) […]. • 3) After four injections every other day (the 11th day of administration), the luciferase test was performed.

Row | interaction between CENP-M and CENP-L compared with control group [4] | SMILES | chromosome alignment in cell mitosis [1] | time after nuclear membrane rupture without entering the late stage (HeLa cells [2]; HeLa) [min] | mitotic progression (delay) (HeLa cells [2]; HeLa GFP-tubulin/mCherry-H2B) | spindle phenotype after elution (HeLa cells [3]) | time to exit mitosis after elution (HeLa cells [3]) [min] | proportion of trypan blue stained cells [5] | proportion of trypan blue stained cells [6] | proportion of trypan blue stained cells [7] | number of cancer cells in the liver of mice (luciferase test) [8]
1 | weakened | OCC(O)C(O)C(O)C(O)/C=N/Nc1nc(N2CCOCC2)nc(N2CCOCC2)n1 (centres unmarked) [cenpemlin] | abnormal chromosome alignment | > 120 | obvious mitotic delays | multipolar spindles | 45 | increase | increase | increase | significantly reduced
2 |  | CC(=O)O[C@H]1C(=O)[C@@]2(C)[C@H]([C@H](OC(=O)c3ccccc3)[C@]3(O)C[C@H](OC(=O)[C@H](O)[C@@H](NC(=O)c4ccccc4)c4ccccc4)C(C)=C1C3(C)C)[C@]1(OC(C)=O)CO[C@@H]1C[C@@H]2O [paclitaxel, reference compound] |  |  |  |  |  |  |  |  | significantly reduced
